# Measured values published in ChEMBL document CHEMBL6092192 (J Med Chem, 2024).
# Calls of active or inactive are those of the source. The calls are words filed in the database; no cut-off is given here.
# Assays:
# KB-C2 = test: Cytotoxicity against human KB-C2 cells assessed as survival rate at 5 uM measured after 72 hrs by MTT assay relative to control; assay type: functional; conditions: read-out: Survival
# [1] = target: Voltage-gated inwardly rectifying potassium channel KCNH2 (Homo sapiens, UniProt Q12809); test: Inhibition of human ERG expressed in CHO cells by QPatch assay; assay type: toxicity, cell-based
# Voltage-gated inwardly rectifying potassium channel KCNH2, sequence (Q12809 whole entry): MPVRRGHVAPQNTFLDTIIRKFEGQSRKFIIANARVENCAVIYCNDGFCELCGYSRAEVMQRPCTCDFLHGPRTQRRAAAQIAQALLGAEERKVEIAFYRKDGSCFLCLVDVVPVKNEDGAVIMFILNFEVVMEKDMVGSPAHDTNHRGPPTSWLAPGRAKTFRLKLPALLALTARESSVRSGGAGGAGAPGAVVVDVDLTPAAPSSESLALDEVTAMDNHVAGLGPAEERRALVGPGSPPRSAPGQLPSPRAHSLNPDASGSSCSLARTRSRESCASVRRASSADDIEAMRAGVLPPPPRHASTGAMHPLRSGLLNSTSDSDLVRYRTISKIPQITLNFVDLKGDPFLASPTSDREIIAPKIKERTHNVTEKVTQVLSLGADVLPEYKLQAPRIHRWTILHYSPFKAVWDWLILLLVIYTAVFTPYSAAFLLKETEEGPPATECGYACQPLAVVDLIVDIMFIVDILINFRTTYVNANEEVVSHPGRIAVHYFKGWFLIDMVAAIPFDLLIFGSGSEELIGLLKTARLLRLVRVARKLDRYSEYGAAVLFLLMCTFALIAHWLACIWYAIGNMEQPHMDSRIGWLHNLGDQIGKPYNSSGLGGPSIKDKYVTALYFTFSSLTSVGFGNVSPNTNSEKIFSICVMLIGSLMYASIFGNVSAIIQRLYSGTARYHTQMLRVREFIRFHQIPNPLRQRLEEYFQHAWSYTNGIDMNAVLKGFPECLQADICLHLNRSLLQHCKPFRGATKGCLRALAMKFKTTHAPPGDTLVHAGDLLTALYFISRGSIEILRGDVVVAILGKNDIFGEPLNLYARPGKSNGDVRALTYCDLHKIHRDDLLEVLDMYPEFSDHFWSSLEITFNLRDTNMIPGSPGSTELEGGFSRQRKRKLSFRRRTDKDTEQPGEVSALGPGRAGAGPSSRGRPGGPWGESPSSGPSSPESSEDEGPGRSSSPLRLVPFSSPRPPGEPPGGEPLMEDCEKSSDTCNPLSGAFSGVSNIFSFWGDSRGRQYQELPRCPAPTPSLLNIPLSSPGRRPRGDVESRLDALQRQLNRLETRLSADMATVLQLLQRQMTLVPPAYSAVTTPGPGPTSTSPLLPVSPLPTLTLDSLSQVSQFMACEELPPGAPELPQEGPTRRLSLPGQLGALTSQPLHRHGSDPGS
# Cytochrome P450 3A4 = Cytochrome P450 3A4 (Homo sapiens, UniProt P08684); test: Activation of recombinant CYP3A4 in human liver microsomes at 4 uM measured after 30 mins in presence of NADPH generating system by fluorescence based analysis; assay type: ADME, Microsome; conditions: 0.5 h
# Cytochrome P450 3A4, sequence (P08684 whole entry): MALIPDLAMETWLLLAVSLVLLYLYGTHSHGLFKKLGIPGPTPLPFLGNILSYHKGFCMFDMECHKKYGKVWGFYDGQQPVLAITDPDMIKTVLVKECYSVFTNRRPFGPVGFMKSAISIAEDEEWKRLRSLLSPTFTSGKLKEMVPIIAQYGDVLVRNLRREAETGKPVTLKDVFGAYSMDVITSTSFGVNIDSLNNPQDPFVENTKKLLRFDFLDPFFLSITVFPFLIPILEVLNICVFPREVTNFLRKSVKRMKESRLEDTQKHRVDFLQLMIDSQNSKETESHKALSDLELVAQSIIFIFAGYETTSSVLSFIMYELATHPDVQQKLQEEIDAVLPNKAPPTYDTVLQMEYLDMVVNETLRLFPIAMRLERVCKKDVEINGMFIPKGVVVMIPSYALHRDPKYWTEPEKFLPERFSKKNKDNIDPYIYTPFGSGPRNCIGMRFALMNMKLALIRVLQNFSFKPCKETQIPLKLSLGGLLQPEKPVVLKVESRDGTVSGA
# [2] = target: T1, ATP-dependent translocase ABCB1 (Homo sapiens, UniProt P08183); test: Inhibition of ABCB1 in human SW620/AD300 cells assessed as increase in [3H]-PTX accumulation at 2 to 4 uM incubated for 4 hrs by liquid scintillation analysis; assay type: cell-based; conditions: sw620/ad300, 4 h, dose 2-4 µM
# T1 sequence (P08183 whole entry): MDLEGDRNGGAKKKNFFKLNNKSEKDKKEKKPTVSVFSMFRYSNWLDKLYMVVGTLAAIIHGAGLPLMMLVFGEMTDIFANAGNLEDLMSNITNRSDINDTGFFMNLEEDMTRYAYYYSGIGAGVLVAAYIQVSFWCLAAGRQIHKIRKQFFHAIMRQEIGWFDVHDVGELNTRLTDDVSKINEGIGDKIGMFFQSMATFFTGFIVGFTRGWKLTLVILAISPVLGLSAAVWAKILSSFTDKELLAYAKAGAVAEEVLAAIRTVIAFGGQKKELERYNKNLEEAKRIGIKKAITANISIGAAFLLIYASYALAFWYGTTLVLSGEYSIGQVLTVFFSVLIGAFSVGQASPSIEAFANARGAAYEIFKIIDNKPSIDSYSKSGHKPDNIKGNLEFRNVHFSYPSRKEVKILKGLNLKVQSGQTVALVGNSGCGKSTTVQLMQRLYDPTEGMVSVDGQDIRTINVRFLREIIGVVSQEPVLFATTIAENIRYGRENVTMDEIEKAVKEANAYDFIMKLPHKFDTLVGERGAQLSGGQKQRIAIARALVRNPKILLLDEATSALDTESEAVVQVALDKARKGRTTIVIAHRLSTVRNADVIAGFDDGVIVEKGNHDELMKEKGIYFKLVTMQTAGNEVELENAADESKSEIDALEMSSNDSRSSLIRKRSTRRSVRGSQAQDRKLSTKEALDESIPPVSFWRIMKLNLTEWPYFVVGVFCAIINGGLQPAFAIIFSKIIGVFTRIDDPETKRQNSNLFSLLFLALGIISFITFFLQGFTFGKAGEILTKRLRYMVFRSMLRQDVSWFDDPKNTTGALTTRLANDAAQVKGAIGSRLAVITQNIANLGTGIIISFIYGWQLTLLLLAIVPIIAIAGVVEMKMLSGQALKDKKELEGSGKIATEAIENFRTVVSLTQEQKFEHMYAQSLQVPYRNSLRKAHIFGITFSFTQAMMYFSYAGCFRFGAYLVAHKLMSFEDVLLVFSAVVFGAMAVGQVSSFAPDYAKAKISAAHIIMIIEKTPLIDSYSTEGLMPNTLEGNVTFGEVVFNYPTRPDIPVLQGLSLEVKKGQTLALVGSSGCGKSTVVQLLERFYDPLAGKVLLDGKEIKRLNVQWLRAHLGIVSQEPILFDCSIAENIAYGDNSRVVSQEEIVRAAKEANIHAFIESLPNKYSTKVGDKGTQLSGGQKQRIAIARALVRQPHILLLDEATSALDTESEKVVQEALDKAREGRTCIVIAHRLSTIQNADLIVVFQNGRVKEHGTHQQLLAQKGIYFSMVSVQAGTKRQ
# CD8-positive T cell [3] = test: Activation of immune response in human CD8-positive T cell assessed as increase in TNF-alpha level at 4 uM by ELISA method; assay type: functional, cell-based
# SW620/AD300 [4] = test: Reversal of paclitaxel resistance in human SW620/AD300 cells assessed as reversal fold by measuring ratio of paclitaxel IC50 to paclitaxel IC50 in presence of test compound at 2 uM incubated for 72 hrs by MTT assay; assay type: functional
# [5] = Toxicity in BALB/c nude mouse xenografted with […] CT26/TAXOL cells assessed as effect on spleen at 100 mg/kg/day, IG in presence of paclitaxel measured after 14 days by H and E staining based analysis; assay type: organism-based; conditions: in vivo, po, 336 h, time 14 day
# CD8-positive T cell [6] = test: Activation of immune response in human CD8-positive T cell assessed as increase in perforin level at 4 uM by ELISA method; assay type: functional, cell-based
# [7] = Clearance in 12 hrs fasted Sprague-Dawley rat at 1 mg/kg, iv measured upto 720 mins by HPLC-MS/MS analysis; assay type: ADME, organism-based; conditions: in vivo
# SW620/AD300 [8] = test: Antitumor activity against human SW620/AD300 cells xenografted in male BALB/c nude mouse model assessed as reduction in tumor volume at 100 mg/kg/day, IG measured after 21 days in presence of paclitaxel; assay type: functional, organism-based; conditions: time 21.0 day
# [9] = AUC (0 to infinity) in 12 hrs fasted Sprague-Dawley rat at 10 mg/kg, po measured upto 720 mins by HPLC-MS/MS analysis; assay type: ADME, organism-based; conditions: in vivo
# [10] = MRT (0 to t) in 12 hrs fasted Sprague-Dawley rat at 1 mg/kg, iv measured upto 720 mins by HPLC-MS/MS analysis; assay type: ADME, organism-based; conditions: in vivo
# [11] = Toxicity in BALB/c nude mouse xenografted with […] CT26/TAXOL cells assessed as effect on brain at 100 mg/kg/day, IG measured after 14 days by H and E staining based analysis; assay type: organism-based; conditions: in vivo, po, 336 h, time 14 day
# [12] = Reversal of paclitaxel resistance in HEK293 cells harbouring ABCB1 assessed as reversal fold by measuring ratio of paclitaxel IC50 to paclitaxel IC50 in presence of test compound at 4 uM incubated for 72 hrs by MTT assay; assay type: functional, Homo sapiens
# [13] = Toxicity in Sprague-Dawley rat assessed as maximum tolerated dose measured for 14 days administered as single oral dose; conditions: in vivo, time 14 day
# [14] = Toxicity in BALB/c nude mouse xenografted with […] CT26/TAXOL cells assessed as effect on kidney at 100 mg/kg/day, IG in presence of paclitaxel/anti-PD-1 measured after 14 days by H and E staining based analysis; assay type: organism-based; conditions: in vivo, po, 336 h, time 14 day
# SW620/AD300 [15] = test: Antitumor activity against human SW620/AD300 cells xenografted in male BALB/c nude mouse model assessed as increase in apoptosis at 100 mg/kg/day, IG in presence of paclitaxel by tunel staining based immunofluorescence analysis; assay type: functional, organism-based
# CD8-positive T cell [16] = test: Activation of immune response in human CD8-positive T cell assessed as increase in IFN-gamma level at 4 uM by ELISA method; assay type: functional, cell-based
# [17] = Toxicity in BALB/c nude mouse assessed as change in body weight at 100 mg/kg/day, IG measured after 21 days in presence of paclitaxel; assay type: organism-based; conditions: in vivo, po, 504 h, time 21 day
# [18] = Toxicity in BALB/c nude mouse xenografted with […] CT26/TAXOL cells assessed as change in body weight at 100 mg/kg/day, IG measured upto 14 days in presence of paclitaxel; assay type: organism-based; conditions: in vivo, po, 336 h, time < 14 day
# KB 3-1 = test: Cytotoxicity against human KB 3-1 cells assessed as survival rate at 5 uM measured after 72 hrs by MTT assay relative to control; assay type: functional; conditions: read-out: Survival
# SW620/AD300 [19] = test: Cytotoxicity against multidrug resistant human SW620/AD300 cells assessed as survival rate at 2 uM measured after 72 hrs by MTT assay relative to control; assay type: functional; conditions: read-out: Survival
# [20] = target: T1, ATP-dependent translocase ABCB1; test: Inhibition of ABCB1 in human SW620/AD300 cells assessed as decrease in [3H]-PTX efflux at 4 uM measured after 120 mins (Rvb <95%); assay type: cell-based; conditions: 2 h
# [21] = Toxicity in BALB/c nude mouse xenografted with […] CT26/TAXOL cells assessed as effect on lung at 100 mg/kg/day, IG in presence of paclitaxel measured after 14 days by H and E staining based analysis; assay type: organism-based; conditions: in vivo, po, 336 h, time 14 day
# SW-620 = test: Reversal of paclitaxel resistance in human SW620 cells assessed as reversal fold by measuring ratio of paclitaxel IC50 to paclitaxel IC50 in presence of test compound at 2 uM incubated for 72 hrs by MTT assay; assay type: functional
# [22] = AUC (0 to t) in 12 hrs fasted Sprague-Dawley rat at 10 mg/kg, po measured upto 720 mins by HPLC-MS/MS analysis; assay type: ADME, organism-based; conditions: in vivo
# [23] = Toxicity in BALB/c nude mouse xenografted with […] CT26/TAXOL cells assessed as mortality at 100 mg/kg/day, IG measured upto 14 days in presence of paclitaxel/anti-PD-1; assay type: organism-based; conditions: in vivo, po, 336 h, time < 14 day
# SW620/AD300 [24] = test: Antitumor activity against human SW620/AD300 cells xenografted in male BALB/c nude mouse model assessed as nuclear pyknosis at 100 mg/kg/day, IG in presence of paclitaxel by H and E staining based analysis; assay type: functional, organism-based
# SW620/AD300 [25] = test: Antitumor activity against human SW620/AD300 cells xenografted in male BALB/c nude mouse model assessed as reduction in tumor volume at 100 mg/kg/day, IG measured after 21 days; assay type: functional, organism-based; conditions: time 21.0 day
# [26] = Half life in 12 hrs fasted Sprague-Dawley rat at 10 mg/kg, po measured upto 720 mins by HPLC-MS/MS analysis; assay type: ADME, organism-based; conditions: in vivo
# [27] = Toxicity in BALB/c nude mouse xenografted with […] CT26/TAXOL cells assessed as effect on lung at 100 mg/kg/day, IG in presence of paclitaxel/anti-PD-1 measured after 14 days by H and E staining based analysis; assay type: organism-based; conditions: in vivo, po, 336 h, time 14 day
# [28] = MRT (0 to infinity) in 12 hrs fasted Sprague-Dawley rat at 1 mg/kg, iv measured upto 720 mins by HPLC-MS/MS analysis; assay type: ADME, organism-based; conditions: in vivo
# HEK293 = test: Cytotoxicity against HEK293 cells harbouring ABCB1 assessed as survival rate at 5 uM measured after 72 hrs by MTT assay relative to control; assay type: functional; conditions: Homo sapiens, read-out: Survival
structure (smiles),measurement,setting,value
O=c1c2c([nH]c3nc(SCc4nc5ccccc5s4)nn13)CCC2,viability at 5 µM,KB-C2,94.4%
same,IC50,[1],> 50 µM
same,Activity,Cytochrome P450 3A4,Active
same,inhibition (INH),[2],Active
same,Activity,CD8-positive T cell [3],Active
same,Ratio IC50,SW620/AD300 [4],168.91
same,Activity,[5],Non-toxic
same,Activity,CD8-positive T cell [6],Active
same,clearance,[7],18.3 mL/min/kg
same,Activity,SW620/AD300 [8],Active
same,AUC(0-inf),[9],5840 ng·h/mL
same,MRT last at 12 h,[10],4.42 h
same,Activity,[11],Non-toxic
same,Ratio IC50,[12],28.25
same,MTD at 336 h,[13],1000 mg/kg
same,Activity,[14],Non-toxic
same,Activity,SW620/AD300 [15],Active
same,Activity,CD8-positive T cell [16],Active
same,Activity,[17],Non-toxic
same,Activity,[18],Non-toxic
same,viability at 5 µM,KB 3-1,95.9%
same,viability at 2 µM,SW620/AD300 [19],98.5%
same,inhibition at 4 µM,[20],71%
same,Activity,[21],Non-toxic
same,Ratio IC50,SW-620,1.01
same,AUC(0-t) at 12 h,[22],5740 ng·h/mL
same,Activity,[23],Non-toxic
same,Activity,SW620/AD300 [24],Active
same,Activity,SW620/AD300 [25],Active; Compound Showed Negligible Effect
same,half-life,[26],4.07 h
same,Activity,[27],Non-toxic
same,MRT inf,[28],5.49 h
same,viability at 5 µM,HEK293,91.2%
